The target in assay [1] is Beta Secretase enzyme (BACE1) (Homo sapiens (Human), UniProt P56817). The assay can be described thus: In vitro enzymatic BACE FRET assay. Format: biochemical. Here is the method:
In Vitro Enzymatic BACE FRET (Fluorescence Resonance Energy Transfer) Assay (Enzyme Assay Data in the Example Tables I and II)
The assay buffer used in this screen is 0.05 M acetate, pH 4.2, 10% DMSO final, 100 uM genapol (which is a nonionic detergent, below its Critical Micelle Concentration). […] This assay is effectively started by the addition of FRET substrate (50 nM) and the combination is incubated for one hour. The FRET assay is terminated with by addition of Tris buffer, which raises the pH to neutrality, and the fluorescence is determined. The FRET substrate is a peptide with commercially available fluorophore and quencher, on opposite sides of the BACE cleavage site. Proteolytic cleavage of the FRET substrate releases quenching of fluorescence (excitation […] and […]).

In assay [2] the test system is Aβ40 in conditioned medium of cells stably expressing Amyloid Precursor Protein (APP). As to the kind of experiment: In vitro BACE cell-based assay (HEK cell assay), Aβ40 sandwich ELISA. The procedure:
In Vitro BACE Cell-Based Assay
The cell-based assay measures inhibition or reduction of Aβ40 in conditioned medium of test compound treated cells expressing amyloid precursor protein.
Cells stably expressing Amyloid Precursor Protein (APP) were plated at a density of 40K cells/well in 96 well plates (Costar). The cells were cultivated for 24 hours at 37° C. and 5% CO2 in DMEM supplemented with 10% FBS. The test compounds were then added to cells in 10-point dose response concentrations with the starting concentration being either 100 μM or 10 μM. The compounds were diluted from stock solutions in DMSO and the final DMSO concentration of the test compounds on cells was 0.1%. After 24 h of incubation with the test compounds the supernatant conditioned media was collected and the Aβ 40 levels were determined using a sandwich ELISA. The IC50 of the compound was calculated from the percent of control or percent inhibition of Aβ 40 as a function of the concentration of the test compound.
The sandwich ELISA to detect Aβ 40 was performed in 96 well microtiter plates, which were pre-treated with goat anti-rabbit IgG (Pierce). The capture and detecting antibody pair that were used to detect Aβ 40 from cell supernatants were affinity purified pAb40 (Biosource) and biotinylated 6E10 (Signet Labs Inc.), respectively. The optimal concentration for the pAb40 antibody was 3 μg/ml in Superblock/TBS (Pierce) that was supplemented with 0.05% Tween 20 (Sigma).
Cellular supernatants were incubated with the capture antibody for 3 h at 4° C., followed by 3 wash steps in TBS-tween (0.05%). The detecting antibody incubation was for 2 h at 4° C., again followed by the wash steps as described previously. The final readout of the ELISA is Time-Resolved Fluorescence (counts per minute) using Delfia reagents Streptavidin-Europium and Enhancement solutions (Perkin Elmer) and the Victor 2 multilabel counter (Perkin Elmer).

A further assay addresses Cathepsin D (Cat D) (Homo sapiens (Human), UniProt P07339). The assay can be described thus: In vitro enzymatic Cathepsin D (Cat D) FRET assay. Format: biochemical. As to conditions: read-out: CatD IC50. The procedure: In Vitro Enzymatic Cathepsin D (Cat D) FRET (Fluorescence Resonance Energy Transfer) Assay Recombinant Cat D was expressed in CHO cells. […] The Cat D enzyme (9 nM) is pre-incubated for one hour with inhibitors, typically in about 1 uL of DMSO according to a serial dilution, is added thereto. […] The FRET assay is terminated with by addition of Tris buffer, which raises the pH to neutrality, and the fluorescence is determined. The FRET substrate is a peptide with commercially available fluorophore and quencher, on opposite sides of the BACE cleavage site. The Cat D substrate peptide sequence is based on sequence #1 of Table 1 from Gulnik et al. […] Where available, the in-vitro Cat D FRET assay data for each of the Examples, conducted by the first procedure, is provided.

The test system of the next assay is Abeta 40. The assay can be described thus: In vivo inhibition of beta-secretase: Abeta 40 reduction in CSF and brain of the rat. The conditions noted are these: 10 mpk (unless otherwise noted), after 4 hrs.
Setting [3] is: Homo sapiens, HEK293, average IC50, HEK cell assay.
[4] abbreviates: average IC50, cell assay (Table II).

As a reminder, the IC50 is the concentration that inhibits the measured activity by half.

Where two headings read alike, the source gives them in different places.

Chain of Cathepsin D (Cat D) (P07339 65-412, species assumed): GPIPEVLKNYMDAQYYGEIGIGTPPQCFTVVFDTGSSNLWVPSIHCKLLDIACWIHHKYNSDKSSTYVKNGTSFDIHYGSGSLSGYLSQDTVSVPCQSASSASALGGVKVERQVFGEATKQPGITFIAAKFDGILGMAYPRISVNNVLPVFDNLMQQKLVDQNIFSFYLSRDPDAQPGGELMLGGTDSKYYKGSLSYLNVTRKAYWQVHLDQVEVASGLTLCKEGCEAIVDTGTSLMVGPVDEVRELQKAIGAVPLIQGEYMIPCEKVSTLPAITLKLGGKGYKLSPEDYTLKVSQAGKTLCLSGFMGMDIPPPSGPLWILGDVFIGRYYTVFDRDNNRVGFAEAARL
Chain of Beta Secretase enzyme (BACE1) (P56817 46-501): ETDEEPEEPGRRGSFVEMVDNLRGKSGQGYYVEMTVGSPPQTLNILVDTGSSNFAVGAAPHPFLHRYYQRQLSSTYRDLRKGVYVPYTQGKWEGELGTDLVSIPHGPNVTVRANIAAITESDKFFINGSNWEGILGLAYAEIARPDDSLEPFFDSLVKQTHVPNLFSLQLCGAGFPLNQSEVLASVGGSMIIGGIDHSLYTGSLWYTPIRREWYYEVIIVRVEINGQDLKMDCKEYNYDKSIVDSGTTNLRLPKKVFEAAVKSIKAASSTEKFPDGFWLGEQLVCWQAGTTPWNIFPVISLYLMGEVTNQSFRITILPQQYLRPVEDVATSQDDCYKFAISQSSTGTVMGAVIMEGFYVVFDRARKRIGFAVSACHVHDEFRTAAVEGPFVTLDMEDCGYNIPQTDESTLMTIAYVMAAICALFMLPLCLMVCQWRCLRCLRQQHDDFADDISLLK

For `COc1cnc(C(=O)Nc2ccc(F)c([C@]3(C)CS(=O)(=O)[C@]4(C[C@H](OC)C4)C(N)=N3)c2)c(C)c1` [Example 461, N-(3-((2R,4r,7R)-9-amino-2-methoxy-7-methyl-5,5-dioxido-5-thia-8-azaspiro[3.5]non-8-en-7-yl)-4-fluorophenyl)-5-methoxy-3-methylpicolinamide], the concentration for half-maximal inhibition (IC50) in assay [1] (average IC50, enzyme assay) is 15.7 nM; in assay [2] (setting [3]) it was 28 nM; at Cathepsin D (Cat D) (Cathepsin D FRET assay), 399000 nM.

On to `COc1cnc(C(=O)Nc2cc([C@@]3(C)CS(=O)(=O)C(C)(C)C(N)=N3)c(F)cn2)cn1` [Example 142, (S)—N-(4-(5-amino-3,6,6-trimethyl-1,1-dioxido-3,6-dihydro-2H-1,4-thiazin-3-yl)-5-fluoropyridin-2-yl)-5-methoxypyrazine-2-carboxamide], for which the concentration for half-maximal inhibition (IC50) in assay [1] (average IC50) was 10000 nM; in assay [2] (Homo sapiens, HEK293, average IC50), 4360 nM; on Cathepsin D (Cat D), greater than 400000 nM.

On to “N-(3-((7R)-9-amino-7-(fluoromethyl)-5,5-dioxido-5-thia-8-azaspiro[3.5]non-8-en-7-yl)-4-fluorophenyl)-5-(difluoromethoxy)-3-methyl-2-pyridinecarboxamide,N-(3-((7S)-9-amino-7-(fluoromethyl)-5,5-dioxido-5-thia-8-azaspiro[3.5]non-8-en-7-yl)-4-fluorophenyl)-5-(difluoromethoxy)-3-methyl-2-pyridinecarboxamide [Example 410]”, for which the IC50 came to 2.3 nM in assay [1] (average IC50), 11.9 nM in assay [2] (average IC50) and 170000 nM at Cathepsin D (Cat D).

For “N-(3-((4aR,7aS)-3-amino-2,2-dimethyl-1,1-dioxido-7,7a-dihydro-2H-furo[3,4-b][1,4]thiazin-4a(5H)-yl)-4-fluorophenyl)-3-chloro-1,7-naphthyridin-8-amine,N-(3-((4aS,7aR)-3-amino-2,2-dimethyl-1,1-dioxido-7,7a-dihydro-2H-furo[3,4-b][1,4]thiazin-4a(5H)-yl)-4-fluorophenyl)-3-chloro-1,7-naphthyridin-8-amine [Example 429]”, the concentration for half-maximal inhibition (IC50) was determined as 4.6 nM in assay [1] (average IC50, enzyme assay); 157 nM in assay [2] (average IC50, cell assay); 131000 nM on Cathepsin D (Cat D).

With `CO[C@H]1C[C@]2(C1)C(N)=N[C@](C)(c1cc(NC(=O)c3ncc(Cl)cc3C)ccc1F)CS2(=O)=O` [Example 460, N-(3-((2R,4r,7R)-9-amino-2-methoxy-7-methyl-5,5-dioxido-5-thia-8-azaspiro[3.5]non-8-en-7-yl)-4-fluorophenyl)-5-chloro-3-methylpicolinamide], the IC50 in assay [1] (average IC50, enzyme assay) was 4 nM; in assay [2] (setting [3]), 34.9 nM; at Cathepsin D (Cat D) (Cathepsin D FRET assay), 466000 nM.

With `CC1(C)C(N)=N[C@](C)(c2cc(Nc3ncnc4cc(C#N)cnc34)cnc2F)CS1(=O)=O` [Example 384], the IC50 in assay [2] (average IC50) amounted to 23.9 nM.

Consider `Cc1cc(C(F)F)cnc1C(=O)Nc1ccc(F)c([C@]2(C)CS(=O)(=O)[C@]3(C[C@@H](F)C3)C(N)=N2)c1` [Example 338, N-(3-((2S,4s,7R)-9-amino-2-fluoro-7-methyl-5,5-dioxido-5-thia-8-azaspiro[3.5]non-8-en-7-yl)-4-fluorophenyl)-5-(diffuoromethyl)-3-methyl-2-pyridinecarboxamide], for which the IC50 in assay [1] (average IC50, enzyme assay (Table II)) was 2.94 nM; in assay [2] (setting [4]), 10.8 nM; at Cathepsin D (Cat D) (Table II), 59000 nM.

`CC1(C)C(N)=N[C@](C)(c2cc(Nc3ccc4c(c3)OC(F)(F)O4)cnc2F)CS1(=O)=O` [Example 414, (5R)-5-(5-((2,2-difluoro-1,3-benzodioxo1-5-yl)amino)-2-fluoro-3-pyridinyl)-2,2,5-trimethyl-5,6-dihydro-2H-1,4-thiazin-3-amine 1,1-dioxide] yielded a half-maximal inhibitory concentration (IC50) in assay [2] (average IC50) of 2530 nM.

“N-(3-((4aR,7aS)-3-amino-2,2-dimethyl-1,1-dioxido-7,7a-dihydro-2H-furo[3,4-b][1,4]thiazin-4a(5H)-yl)-4-fluorophenyl)-5-methoxy-3-methyl-2-pyridinecarboxamide,N-(3-((4aS,7aR)-3-amino-2,2-dimethyl-1,1-dioxido-7,7a-dihydro-2H-furo[3,4-13][1,4]thiazin-4a(5H)-yl)-4-fluorophenyl)-5-methoxy-3-methyl-2-pyridinecarboxamide [Example 428]”: the half-inhibitory concentration (IC50) amounted to 9.71 nM in assay [1] (average IC50, enzyme assay); 37.3 nM in assay [2] (average IC50, cell assay); 309000 nM at Cathepsin D (Cat D).

Consider “N-(3-((4aR,7aS)-3-amino-2,2-dimethyl-1,1-dioxido-7,7a-dihydro-2H-furo[3,4-b][1,4]thiazin-4a(5H)-yl)-4-fluorophenyl)-5-chloro-3-methyl-2-pyridinecarboxamide,N-(3-((4aS,7aR)-3-amino-2,2-dimethyl-1,1-dioxido-7,7a-dihydro-2H-furo[3,4-13][1,4]thiazin-4a(5H)-yl)-4-fluorophenyl)-5-chloro-3-methyl-2-pyridinecarboxamide [Example 427]”, for which the IC50 in assay [1] (average IC50, enzyme assay) is 1 nM; in assay [2] (average IC50, cell assay) it was 33 nM; at Cathepsin D (Cat D), 220000 nM.

Consider `CC1(C)C(N)=N[C@](CF)(c2cc(Nc3nccc4cc(Cl)cnc34)ccc2F)CS1(=O)=O` [Example 448, N-(3-((3S)-5-amino-3-(fluoromethyl)-6,6-dimethyl-1,1-dioxido-3,6-dihydro-2H-1,4-thiazn-3-yl)-4-fluorophenyl)-3-chloro-1,7-naphthyridin-8-amine], for which, in assay [2] (average IC50, cell assay), the IC50 was 28.5 nM.

Regarding `CC1(C)C(N)=N[C@](C)(c2cc(NC(=O)c3cc4ccccc4cn3)ccc2F)CS1(=O)=O` [Example 343], the half-maximal inhibitory concentration (IC50) in assay [2] (setting [4]) was determined as 10.7 nM.

With `COc1cnc(C(=O)Nc2ccc(F)c([C@]3(C)CS(=O)(=O)[C@]4(C[C@@H](F)C4)C(N)=N3)c2)c(C)c1` [Example 463, N-(3-((2S,4s,7R)-9-amino-2-fluoro-7-methyl-5,5-dioxido-5-thia-8-azaspiro[3.5]non-8-en-7-yl)-4-fluorophenyl)-5-methoxy-3-methylpicolinamide], the concentration for half-maximal inhibition (IC50) in assay [1] (average IC50, enzyme assay) turned out to be 4.6 nM; in assay [2] (setting [3]), 13.2 nM; at Cathepsin D (Cat D) (Cathepsin D FRET assay), 76500 nM.

Turning to `Cc1c(C(=O)Nc2ccc(F)c([C@]3(C)CS(=O)(=O)[C@]4(C[C@@H](F)C4)C(N)=N3)c2)nc2ccc(Cl)cn12` [Example 464, N-(3-((2 S,4s,7R)-9-amino-2-fluoro-7-methyl-5,5-dioxido-5-thia-8-azaspiro[3.5]non-8-en-7-yl)-4-fluorophenyl)-6-chloro-3-methylimidazo[1,2-a]pyridine-2-carboxamide], the IC50 in assay [1] (average IC50, enzyme assay) was found to be 4 nM; in assay [2] (setting [3]) it was 6 nM; on Cathepsin D (Cat D) (Cathepsin D FRET assay) it was 67400 nM.

Turning to `COc1cnc(C(=O)Nc2ccc(F)c([C@]34COC[C@H]3S(=O)(=O)C(C)(C)C(N)=N4)c2)c(C)c1` [Example 430, N-(3-((4aS,7aS)-3-amino-2,2-dimethyl-1,1-dioxido-7,7a-dihydro-2H-furo[3,4-13][1,4]thiazin-4a(5H)-yl)-4-fluorophenyl)-5-methoxy-3-methyl-2-pyridinecarboxamide], the half-inhibitory concentration (IC50) in assay [1] (average IC50, enzyme assay) came out at 4.1 nM; in assay [2] (average IC50, cell assay), 11.7 nM. The “% reduction of rat CSF levels at 10 pmk” value in the assay with Abeta 40 (rat CSF) is reported as 31%. For the same compound, in the assay with Abeta 40 (rat brain), the “% reduction of rat brain levels at 10 mpk” value turned out to be 1%.

As for `Cc1ccc(Oc2ccc(F)c([C@]3(C)CS(=O)(=O)C(C)(C)C(N)=N3)c2)nc1` [Example 265, (5R)-5-(2-fluoro-5-((5-methyl-2-pyridinyl)oxy)phenyl)-2,2,5-3-amine 1,1-dioxide trimethyl-5,6-dihydro-2H-1,4-thiazin-3-amine 1,1-dioxide], the half-maximal inhibitory concentration (IC50) in assay [2] (average IC50) turned out to be 804 nM.

These data come from patent US9556135B2, “Amino-dihydrothiazine and amino-dioxido dihydrothiazine compounds as beta-secretase antagonists and methods of use” (Amgen Inc., priority 2012, dated 2017).
